Test results taken from US12497365B2, “4-pyridinyl formamide compound or derivative thereof, preparation method therefor, herbicidal composition and use thereof” (Qingdao Kingagroot Chemical Compound Co., Ltd., priority 2019, dated 2025).

Experiments:
Assay in all cases: Weeding effect in post-emergence stage
Type in all cases: in vivo
Conditions in all cases: active ingredient 2000 g/ha, 3 weeks after application, fresh weight control rate
[1] = test system: Amaranthus retroflexus L.
Procedure, shortened: (§1)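 Post-emergence spray, 2-3 leaf stage; acetone/Tween 80 formulation + methyl oleate EC synergist (1.5 liter/ha); 125-2000 g/ha via spray tower. Greenhouse, 3 wk. Read-out: fresh weight growth control rate, graded by activity level.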

Abutilon theophrasti = test system: Abutilon theophrasti
Procedure, shortened: as §1

Descurainia sophia = test system: Descurainia sophia
Procedure, shortened: as §1

Chenopodium album = test system: Chenopodium album
Procedure, shortened: as §1

With `Cn1nnnc1NC(=O)c1ccnc(-c2ccc(C(F)(F)F)cc2C(F)(F)F)c1Cl` [Compound 1-76] the “Weeding effect, activity level (growth control rate), Amaranthus retroflexus L.” value (shortened to “Weeding effect … Amaranthus retroflexus L.”) [1] was 5 (Level 5: growth control rate is above 85%), the “Weeding effect, activity level (growth control rate), Abutilon theophrasti” value (“Weeding effect … Abutilon theophrasti” below) (Abutilon theophrasti) was 5 (Level 5: growth control rate is above 85%) and the “Weeding effect, activity level (growth control rate), Descurainia sophia” value (“Weeding effect … Descurainia sophia” for short) (Descurainia sophia) was 5 (Level 5: growth control rate is above 85%). For the same compound, the “Weeding effect, activity level (growth control rate), Chenopodium album” value (“Weeding effect … Chenopodium album” below) (Chenopodium album) was 5 (Level 5: growth control rate is above 85%).

`Cn1nnnc1NC(=O)c1ccnc(-c2cccc(C#N)n2)c1Cl` [Compound 1-120] was tested, and the “Weeding effect … Amaranthus retroflexus L.” value [1] was 5 (Level 5: growth control rate is above 85%), the “Weeding effect … Abutilon theophrasti” value (Abutilon theophrasti) was 5 (Level 5: growth control rate is above 85%) and the “Weeding effect … Descurainia sophia” value (Descurainia sophia) was 5 (Level 5: growth control rate is above 85%). The “Weeding effect … Chenopodium album” value (Chenopodium album) was 5 (Level 5: growth control rate is above 85%).

With `Cc1csc(-c2nccc(C(=O)Nc3nnnn3C)c2Cl)c1` [Compound 1-188] the “Weeding effect … Amaranthus retroflexus L.” value [1] was 5 (Level 5: growth control rate is above 85%), the “Weeding effect … Abutilon theophrasti” value (Abutilon theophrasti) was 5 (Level 5: growth control rate is above 85%) and the “Weeding effect … Descurainia sophia” value (Descurainia sophia) was 5 (Level 5: growth control rate is above 85%). For the same compound, the “Weeding effect … Chenopodium album” value (Chenopodium album) was 5 (Level 5: growth control rate is above 85%).

For `Cn1nnnc1NC(=O)c1ccnc(-c2ccc(Cl)nc2)c1Cl` [Compound 1-129], the “Weeding effect … Amaranthus retroflexus L.” value [1] was 5 (Level 5: growth control rate is above 85%), the “Weeding effect … Abutilon theophrasti” value (Abutilon theophrasti) was 5 (Level 5: growth control rate is above 85%) and the “Weeding effect … Descurainia sophia” value (Descurainia sophia) was 5 (Level 5: growth control rate is above 85%). For the same compound, the “Weeding effect … Chenopodium album” value (Chenopodium album) was 5 (Level 5: growth control rate is above 85%).

In the case of `Cn1nnnc1NC(=O)c1ccnc(C2CCCCC2)c1Cl` [Compound 1-4], the “Weeding effect … Amaranthus retroflexus L.” value [1] is reported as 5 (Level 5: growth control rate is above 85%), the “Weeding effect … Abutilon theophrasti” value (Abutilon theophrasti) is reported as 5 (Level 5: growth control rate is above 85%) and the “Weeding effect … Descurainia sophia” value (Descurainia sophia) is reported as 5 (Level 5: growth control rate is above 85%). The “Weeding effect … Chenopodium album” value (Chenopodium album) was 5 (Level 5: growth control rate is above 85%).

In the case of `Cn1nnnc1NC(=O)c1ccnc(-c2cccc(Br)c2)c1Cl` [Compound 1-21], the “Weeding effect … Amaranthus retroflexus L.” value [1] is reported as 5 (Level 5: growth control rate is above 85%), the “Weeding effect … Abutilon theophrasti” value (Abutilon theophrasti) is reported as 5 (Level 5: growth control rate is above 85%) and the “Weeding effect … Descurainia sophia” value (Descurainia sophia) is reported as 5 (Level 5: growth control rate is above 85%). The “Weeding effect … Chenopodium album” value (Chenopodium album) was 5 (Level 5: growth control rate is above 85%).

`Cn1nnnc1NC(=O)c1ccnc(-c2ccc(OC3CCCCO3)cc2)c1Cl` (stereo not shown) [Compound 1-51] was tested, and the “Weeding effect … Amaranthus retroflexus L.” value [1] was 5 (Level 5: growth control rate is above 85%), the “Weeding effect … Abutilon theophrasti” value (Abutilon theophrasti) was 5 (Level 5: growth control rate is above 85%) and the “Weeding effect … Descurainia sophia” value (Descurainia sophia) was 5 (Level 5: growth control rate is above 85%). The “Weeding effect … Chenopodium album” value (Chenopodium album) was 5 (Level 5: growth control rate is above 85%).

`Cn1nnnc1NC(=O)c1ccnc(-c2ccc(F)c(C#N)c2)c1Cl` [Compound 1-84] was tested, and the “Weeding effect … Amaranthus retroflexus L.” value [1] was 5 (Level 5: growth control rate is above 85%), the “Weeding effect … Abutilon theophrasti” value (Abutilon theophrasti) was 5 (Level 5: growth control rate is above 85%) and the “Weeding effect … Descurainia sophia” value (Descurainia sophia) was 5 (Level 5: growth control rate is above 85%). For the same compound, the “Weeding effect … Chenopodium album” value (Chenopodium album) was 5 (Level 5: growth control rate is above 85%).

`Cn1nnnc1NC(=O)c1ccnc(-c2cccc(C(F)(F)F)c2)c1Cl` [Compound 1-26] was tested, and the “Weeding effect … Amaranthus retroflexus L.” value [1] was 5 (Level 5: growth control rate is above 85%), the “Weeding effect … Abutilon theophrasti” value (Abutilon theophrasti) was 5 (Level 5: growth control rate is above 85%) and the “Weeding effect … Descurainia sophia” value (Descurainia sophia) was 5 (Level 5: growth control rate is above 85%). For the same compound, the “Weeding effect … Chenopodium album” value (Chenopodium album) was 5 (Level 5: growth control rate is above 85%).

In the case of `Cn1nnnc1NC(=O)c1ccnc(-c2cccc(F)c2F)c1Cl` [Compound 1-62], the “Weeding effect … Amaranthus retroflexus L.” value [1] is reported as 5 (Level 5: growth control rate is above 85%), the “Weeding effect … Abutilon theophrasti” value (Abutilon theophrasti) is reported as 5 (Level 5: growth control rate is above 85%) and the “Weeding effect … Descurainia sophia” value (Descurainia sophia) is reported as 5 (Level 5: growth control rate is above 85%). The “Weeding effect … Chenopodium album” value (Chenopodium album) was 5 (Level 5: growth control rate is above 85%).

In the case of `Cn1nnnc1NC(=O)c1ccnc(-c2ccc(F)cc2)c1Br` [Compound 1-196], the “Weeding effect … Amaranthus retroflexus L.” value [1] is reported as 5 (Level 5: growth control rate is above 85%), the “Weeding effect … Abutilon theophrasti” value (Abutilon theophrasti) is reported as 5 (Level 5: growth control rate is above 85%) and the “Weeding effect … Descurainia sophia” value (Descurainia sophia) is reported as 5 (Level 5: growth control rate is above 85%). For the same compound, the “Weeding effect … Chenopodium album” value (Chenopodium album) was 5 (Level 5: growth control rate is above 85%).

With `COc1ncc(-c2nccc(C(=O)Nc3nnnn3C)c2Cl)cn1` [Compound 1-161] the “Weeding effect … Amaranthus retroflexus L.” value [1] was 5 (Level 5: growth control rate is above 85%), the “Weeding effect … Abutilon theophrasti” value (Abutilon theophrasti) was 5 (Level 5: growth control rate is above 85%) and the “Weeding effect … Descurainia sophia” value (Descurainia sophia) was 5 (Level 5: growth control rate is above 85%). For the same compound, the “Weeding effect … Chenopodium album” value (Chenopodium album) was 5 (Level 5: growth control rate is above 85%).

`CSc1c(C(=O)Nc2nnnn2C)ccnc1-c1ccc(C#N)cc1` [Compound 1-2052] was tested, and the “Weeding effect … Amaranthus retroflexus L.” value [1] was 5 (Level 5: growth control rate is above 85%), the “Weeding effect … Abutilon theophrasti” value (Abutilon theophrasti) was 5 (Level 5: growth control rate is above 85%) and the “Weeding effect … Descurainia sophia” value (Descurainia sophia) was 5 (Level 5: growth control rate is above 85%). For the same compound, the “Weeding effect … Chenopodium album” value (Chenopodium album) was 5 (Level 5: growth control rate is above 85%).

`Cn1nnnc1NC(=O)c1ccnc(-c2cccc(Br)c2F)c1Cl` [Compound 1-97] was tested, and the “Weeding effect … Amaranthus retroflexus L.” value [1] was 5 (Level 5: growth control rate is above 85%), the “Weeding effect … Abutilon theophrasti” value (Abutilon theophrasti) was 5 (Level 5: growth control rate is above 85%) and the “Weeding effect … Descurainia sophia” value (Descurainia sophia) was 5 (Level 5: growth control rate is above 85%). The “Weeding effect … Chenopodium album” value (Chenopodium album) was 5 (Level 5: growth control rate is above 85%).

`Cn1nnnc1NC(=O)c1ccnc(-c2ccc(Cl)cc2)c1Cl` [Compound 1-20] was tested, and the “Weeding effect … Amaranthus retroflexus L.” value [1] was 5 (Level 5: growth control rate is above 85%), the “Weeding effect … Abutilon theophrasti” value (Abutilon theophrasti) was 5 (Level 5: growth control rate is above 85%) and the “Weeding effect … Descurainia sophia” value (Descurainia sophia) was 5 (Level 5: growth control rate is above 85%). The “Weeding effect … Chenopodium album” value (Chenopodium album) was 5 (Level 5: growth control rate is above 85%).

For `Cn1nnnc1NC(=O)c1ccnc(-c2ccc(F)cc2)c1S(C)(=O)=O` [Compound 1-207], the “Weeding effect … Amaranthus retroflexus L.” value [1] was 5 (Level 5: growth control rate is above 85%), the “Weeding effect … Abutilon theophrasti” value (Abutilon theophrasti) was 5 (Level 5: growth control rate is above 85%) and the “Weeding effect … Descurainia sophia” value (Descurainia sophia) was 5 (Level 5: growth control rate is above 85%). The “Weeding effect … Chenopodium album” value (Chenopodium album) was 5 (Level 5: growth control rate is above 85%).

For `Cn1nnnc1NC(=O)c1ccnc(-c2cccc3cnccc23)c1Cl` [Compound 1-114], the “Weeding effect … Amaranthus retroflexus L.” value [1] was 5 (Level 5: growth control rate is above 85%), the “Weeding effect … Abutilon theophrasti” value (Abutilon theophrasti) was 5 (Level 5: growth control rate is above 85%) and the “Weeding effect … Descurainia sophia” value (Descurainia sophia) was 5 (Level 5: growth control rate is above 85%). The “Weeding effect … Chenopodium album” value (Chenopodium album) was 5 (Level 5: growth control rate is above 85%).

With `Cn1nnnc1NC(=O)c1ccnc(-c2cc(C(F)(F)F)cc(C(F)(F)F)c2)c1Cl` [Compound 1-77] the “Weeding effect … Amaranthus retroflexus L.” value [1] was 5 (Level 5: growth control rate is above 85%), the “Weeding effect … Abutilon theophrasti” value (Abutilon theophrasti) was 5 (Level 5: growth control rate is above 85%) and the “Weeding effect … Descurainia sophia” value (Descurainia sophia) was 5 (Level 5: growth control rate is above 85%). The “Weeding effect … Chenopodium album” value (Chenopodium album) was 5 (Level 5: growth control rate is above 85%).

For `COC(C)c1c(C(=O)Nc2nnnn2C)ccnc1-c1ccc(F)cc1` (stereo not shown) [Compound 1-215], the “Weeding effect … Amaranthus retroflexus L.” value [1] was 5 (Level 5: growth control rate is above 85%), the “Weeding effect … Abutilon theophrasti” value (Abutilon theophrasti) was 5 (Level 5: growth control rate is above 85%) and the “Weeding effect … Descurainia sophia” value (Descurainia sophia) was 5 (Level 5: growth control rate is above 85%). For the same compound, the “Weeding effect … Chenopodium album” value (Chenopodium album) was 5 (Level 5: growth control rate is above 85%).

For `Cc1nnc(NC(=O)c2ccnc(-c3ccc(F)cc3)c2Cl)n1C` [Compound 1-650], the “Weeding effect … Amaranthus retroflexus L.” value [1] was 5 (Level 5: growth control rate is above 85%), the “Weeding effect … Abutilon theophrasti” value (Abutilon theophrasti) was 5 (Level 5: growth control rate is above 85%) and the “Weeding effect … Descurainia sophia” value (Descurainia sophia) was 5 (Level 5: growth control rate is above 85%). The “Weeding effect … Chenopodium album” value (Chenopodium album) was 5 (Level 5: growth control rate is above 85%).

`Cn1nnnc1NC(=O)c1ccnc(-c2cnc(C#N)nc2)c1Cl` [Compound 1-159] was tested, and the “Weeding effect … Amaranthus retroflexus L.” value [1] was 5 (Level 5: growth control rate is above 85%), the “Weeding effect … Abutilon theophrasti” value (Abutilon theophrasti) was 5 (Level 5: growth control rate is above 85%) and the “Weeding effect … Descurainia sophia” value (Descurainia sophia) was 5 (Level 5: growth control rate is above 85%). The “Weeding effect … Chenopodium album” value (Chenopodium album) was 5 (Level 5: growth control rate is above 85%).

With `Cn1nnnc1NC(=O)c1ccnc(-c2ccncc2F)c1Cl` [Compound 1-150] the “Weeding effect … Amaranthus retroflexus L.” value [1] was 5 (Level 5: growth control rate is above 85%), the “Weeding effect … Abutilon theophrasti” value (Abutilon theophrasti) was 5 (Level 5: growth control rate is above 85%) and the “Weeding effect … Descurainia sophia” value (Descurainia sophia) was 5 (Level 5: growth control rate is above 85%). The “Weeding effect … Chenopodium album” value (Chenopodium album) was 5 (Level 5: growth control rate is above 85%).
